Measured values from patent US6914045B2, “Glycopeptide antibiotics” (Wyeth Holdings Corporation, priority 2001, dated 2005).
In brackets after ≈: the same amount, converted by molar mass.

Tests used:
Test in all cases: in vitro antibacterial evaluation, MIC by broth dilution
Type in all cases: cell-based
Staphylococcus sp. = details: broth dilution, 18 hours at 35° C.
Outline: (§1)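 Broth dilution per NCCLS M7-A2 in Mueller-Hinton II medium, inoculum 5×10^5 CFU/mL, antibiotic range 64-0.06 μg/mL. MIC taken as lowest concentration inhibiting growth; Gram-positive panel includes recent clinical isolates resistant to methicillin, penicillin and/or vancomycin.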

Escherichia coli = details: 18 hours at 35° C.
Outline: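 Following National Committee for Clinical Laboratory Standards recommendations (M7-A2), susceptibility was measured by dilution in Muller-Hinton II […]. Bacteria were seeded at 5×10^5 CFU/mL against compound concentrations from 64 down to 0.06 μg/mL.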

Streptococcus sp. = details: broth dilution, 18 hours at 35° C.
Outline: as §1

Enterococcus sp. = details: broth dilution, 18 hours at 35° C.
Outline: as §1

CC(c1ccccc1)C1NC(=O)CNC(=O)C(CO)NC(=O)C(C(O)C2CNC(=N)N2C2OC(CO)C(O)C(O)C2O)NC(=O)C(C(O)C2CNC(=N)N2)NC(=O)C(Cc2ccc(OC3OC(CO)C(OC4OC(CO)C(O)C(O)C4O)C(O)C3O)c(N)c2)NC1=O (stereo not drawn) [Example 287, Cyclo[glycyl-β-methylphenylalanyl-2-amino-O-(4-O-hexopyranosylhexopyranosyl)tyrosyl-3-(2-iminoimidazolidin-4-yl)seryl-3-(3-hexopyranosyl-2-iminoimidazolidin-4-yl)serylseryl]]
MIC Coagulase Negative Staphylococcus (GC 4547) (Staphylococcus sp.): >64 µg/mL
MIC Coagulase Negative Staphylococcus (GC 4548) (Staphylococcus sp.): >64 µg/mL
MIC Coagulase Negative Staphylococcus (GC 4549) (Staphylococcus sp.): >64 µg/mL
MIC Coagulase Negative Staphylococcus (GC 4551) (Staphylococcus sp.): >64 µg/mL
MIC Coagulase Negative Staphylococcus (GC 6257) (Staphylococcus sp.): >64 µg/mL
MIC Staphylococcus aureus (ATCC 29213) (Staphylococcus sp.): >64 µg/mL
MIC Staphylococcus aureus (GC 1131) (Staphylococcus sp.): >64 µg/mL
MIC Staphylococcus aureus (GC 3051) (Staphylococcus sp.): >64 µg/mL
MIC Staphylococcus aureus (GC 3053) (Staphylococcus sp.): >64 µg/mL
MIC Staphylococcus aureus (GC 4541) (Staphylococcus sp.): >64 µg/mL
MIC Staphylococcus aureus (GC 4542) (Staphylococcus sp.): >64 µg/mL
MIC Staphylococcus aureus (GC 4544) (Staphylococcus sp.): >64 µg/mL
MIC Staphylococcus aureus (GC 4545) (Staphylococcus sp.): >64 µg/mL
MIC Staphylococcus aureus-SMITH (GC 4543) (Staphylococcus sp.): >64 µg/mL
MIC Staphylococcus haemolyticus (GC 4546) (Staphylococcus sp.): >64 µg/mL
MIC Staphylococcus aureus (ATCC 29213) (Staphylococcus sp.; strain ATCC 29213): >64 µg/mL
MIC Staphylococcus aureus (GC 1131) (Staphylococcus sp.; strain GC 1131): >64 µg/mL
MIC Staphylococcus aureus (GC 3051) (Staphylococcus sp.; strain GC 3051): >64 µg/mL
MIC Staphylococcus aureus (GC 3053) (Staphylococcus sp.; strain GC 3053): >64 µg/mL
MIC Staphylococcus aureus (GC 4541) (Staphylococcus sp.; strain GC 4541): >64 µg/mL
MIC Staphylococcus aureus (GC 4542) (Staphylococcus sp.; strain GC 4542): >64 µg/mL
MIC Staphylococcus aureus (GC 4544) (Staphylococcus sp.; strain GC 4544): >64 µg/mL
MIC Staphylococcus aureus (GC 4545) (Staphylococcus sp.; strain GC 4545): >64 µg/mL
MIC Staphylococcus haemolyticus (GC 4546) (Staphylococcus sp.; strain GC 4546): >64 µg/mL
MIC Coagulase Negative Staphylococcus (GC 4547) (Staphylococcus sp.; strain GC 4547): >64 µg/mL
MIC Coagulase Negative Staphylococcus (GC 4548) (Staphylococcus sp.; strain GC 4548): >64 µg/mL
MIC Coagulase Negative Staphylococcus (GC 4549) (Staphylococcus sp.; strain GC 4549): >64 µg/mL
MIC Coagulase Negative Staphylococcus (GC 4551) (Staphylococcus sp.; strain GC 4551): >64 µg/mL
MIC Coagulase Negative Staphylococcus (GC 6257) (Staphylococcus sp.; strain GC 6257): >64 µg/mL
MIC Staphylococcus aureus-SMITH (GC 4543) (Staphylococcus sp.; strain SMITH GC 4543): >64 µg/mL
MIC Escherichia coli (ATCC 25922) (Escherichia coli; Escherichia coli (ATCC 25922)): >64 µg/mL
MIC Escherichia coli (GC 4559) (Escherichia coli; Escherichia coli (GC 4559)): >64 µg/mL
MIC Escherichia coli (GC 4560) (Escherichia coli; Escherichia coli (GC 4560)): >64 µg/mL
MIC Streptococcus pneumoniae (ATCC 6301) (Streptococcus sp.; strain ATCC 6301): 64 µg/mL (≈ 48.8 µM)
MIC Streptococcus pneumoniae (GC 1894) (Streptococcus sp.; strain GC 1894): 64 µg/mL (≈ 48.8 µM)
MIC Streptococcus pyogenes (GC 4563) (Streptococcus sp.; strain GC 4563): >64 µg/mL
MIC Streptococcus agalactiae (GC 4564) (Streptococcus sp.; strain GC 4564): >64 µg/mL
MIC Streptococcus pneumoniae (GC 4565) (Streptococcus sp.; strain GC 4565): 64 µg/mL (≈ 48.8 µM)
MIC Enterococcus avium (GC 4558) (Enterococcus sp.; Enterococcus avium (GC 4558)): 64 µg/mL (≈ 48.8 µM)
MIC Enterococcus faecalis (ATCC 29212) (Enterococcus sp.; Enterococcus faecalis (ATCC 29212)): >64 µg/mL
MIC Enterococcus faecalis (GC 4553) (Enterococcus sp.; Enterococcus faecalis (GC 4553)): >64 µg/mL
MIC Enterococcus faecalis (GC 4554) (Enterococcus sp.; Enterococcus faecalis (GC 4554)): >64 µg/mL
MIC Enterococcus faecalis (GC 6189) (Enterococcus sp.; Enterococcus faecalis (GC 6189)): >64 µg/mL
MIC Enterococcus faecium (GC 2243) (Enterococcus sp.; Enterococcus faecium (GC 2243)): >64 µg/mL
MIC Enterococcus faecium (GC 4556) (Enterococcus sp.; Enterococcus faecium (GC 4556)): >64 µg/mL
MIC Enterococcus faecium (GC 4557) (Enterococcus sp.; Enterococcus faecium (GC 4557)): 64 µg/mL (≈ 48.8 µM)
MIC Enterococcus faecalis (ATCC 29212) (Enterococcus sp.; strain ATCC 29212): >64 µg/mL
MIC Enterococcus faecalis (GC 2242) (Enterococcus sp.; strain GC 2242): >64 µg/mL
MIC Enterococcus faecium (GC 2243) (Enterococcus sp.; strain GC 2243): >64 µg/mL
MIC Enterococcus faecalis (GC 2691) (Enterococcus sp.; strain GC 2691): >64 µg/mL
MIC Enterococcus faecalis (GC 3059) (Enterococcus sp.; strain GC 3059): >64 µg/mL
MIC Enterococcus faecalis (GC 4552) (Enterococcus sp.; strain GC 4552): >64 µg/mL
MIC Enterococcus faecalis (GC 4553) (Enterococcus sp.; strain GC 4553): >64 µg/mL
MIC Enterococcus faecalis (GC 4554) (Enterococcus sp.; strain GC 4554): >64 µg/mL
MIC Enterococcus faecium (GC 4556) (Enterococcus sp.; strain GC 4556): >64 µg/mL
MIC Enterococcus faecium (GC 4557) (Enterococcus sp.; strain GC 4557): 64 µg/mL (≈ 48.8 µM)
MIC Enterococcus avium (GC 4558) (Enterococcus sp.; strain GC 4558): 64 µg/mL (≈ 48.8 µM)
MIC Enterococcus faecalis (GC 6189) (Enterococcus sp.; strain GC 6189): >64 µg/mL
